According to patent US20240091203A1, “METHODS FOR TREATING NON-OBSTRUCTIVE HYPERTROPHIC CARDIOMYOPATHY” (Cytokinetics, Incorporated, priority 2022, published 2024):
Entries after “also recorded” stand apart in the source; their conditions may differ.

Key:
[1] = Phase 1 plasma pharmacokinetics, CYP2D6 poor metabolizer cohort; type: in vivo, human; settings: single 10 mg
Experimental: CYP2D6 poor metabolizer cohort.
CYP2D6 genotypes were determined at screening for all study participants; those identified as CYP2D6-PMs were excluded from the SAD and MAD cohorts but were invited to participate in the CYP2D6-PM cohort. The first individual in the CYP2D6-PM cohort was dosed after the SAD 25-mg cohort (FIG. 2). […] Nine participants were randomized (7:2) with a sentinel dosing group consisting of the first 2 participants treated.
Pharmacokinetic analyses. For all study groups, blood samples for PK assessment were obtained pre-dose, up to 12 times daily on day 1, and then at regular intervals throughout the study. Blood samples were collected according to the following schedule: SAD Cohorts: Day 1: pre-dose and 0.25, 0.5, 1, 1.5, 2, 2.5, 3, 4, 6, 8, 12, 16, 24, 36, 48, 72, 96, and 216 h post dose. MAD Cohorts (14-day Dosing): Day 1: pre-dose and 0.25, 0.5, 1, 1.5, 2, 2.5, 3, 4, 6, 8, and 12 h post dose; Days 2, 4, 5, 6, and 9: pre-dose (corresponding to trough samples following dosing on days 1, 3, 4, 5, and 8) and 1.5 h post dose; Days 3, 7, 8, 10, 11, 12, and 13: pre-dose (corresponding to trough samples following dosing on days 2, 6, 7, 9, 10, 11, and 12); Day 14: pre-dose and 0.25, 0.5, 1.5, 2, 2.5, 3, 4, 6, 8, 12, 16, 24, 36, 48, 72, and 168 h post dose. MAD Cohort (17-Day Dosing): Day 1: pre-dose and 0.25, 0.5, 1, 1.5, 2, 2.5, 3, 4, 6, 8, and 12 h post dose; Days 2, 4, 5, 6, and 9: pre-dose (corresponding to trough samples following dosing on days 1, 3, 4, 5, and 8) and 1.5 h post dose; Days 3, 7, 8, 10, 11, 12, 13, 14, 15, and 16: pre-dose (corresponding to trough samples following dosing on days 2, 6, 7, 9, 10, 11, and 12); Day 17: pre-dose and 0.25, 0.5, 1.5, 2, 2.5, 3, 5, 7, 9, 12, 24, 36, 48, 72, and 168 h post dose. CYPD6-PM Cohort: Day 1: pre-dose and 0.25, 0.5, 1, 1.5, 2, 2.5, 3, 4, 6, 8, 12, 16, 24, 36, 48, 72, 96, 216, 312, and 552 h post dose. Food-Effect Cohort: Day 1: pre-dose and 0.25, 0.5, 1, 1.5, 2, 2.5, 3, 4, 6, 8, 12, 16, 24, 36, 48, 72, 96, 144, and 216 h post dose. Standard non-compartmental methods were used to calculate PK parameters using Phoenix® WinNonlin® Version 7.0; actual sample collection times were utilized.

[2] = Phase 1 plasma pharmacokinetics, food-effect cohort; type: in vivo, human; settings: 10 mg; for AUCinf / AUC24 / Cmax: geometric mean; for CL/F / t1/2: mean ± SD
Experimental: Food-effect cohort. […] Participants were randomized in a 1:1 ratio to 1 of 2 sequences: fasted/fed or fed/fasted.
Pharmacokinetic analyses. For all study groups, blood samples for PK assessment were obtained pre-dose, up to 12 times daily on day 1, and then at regular intervals throughout the study. Blood samples were collected according to the following schedule: SAD Cohorts: Day 1: pre-dose and 0.25, 0.5, 1, 1.5, 2, 2.5, 3, 4, 6, 8, 12, 16, 24, 36, 48, 72, 96, and 216 h post dose. […] CYPD6-PM Cohort: Day 1: pre-dose and 0.25, 0.5, 1, 1.5, 2, 2.5, 3, 4, 6, 8, 12, 16, 24, 36, 48, 72, 96, 216, 312, and 552 h post dose. Food-Effect Cohort: Day 1: pre-dose and 0.25, 0.5, 1, 1.5, 2, 2.5, 3, 4, 6, 8, 12, 16, 24, 36, 48, 72, 96, 144, and 216 h post dose. Standard non-compartmental methods were used to calculate PK parameters using Phoenix® WinNonlin® Version 7.0; actual sample collection times were utilized.

[3] = test system: patients with symptomatic non-obstructive HCM (nHCM) or HCM with MVO; test: Phase 2 trial (Example 2): safety and tolerability; settings: for Patients with fatal TEAEs: not related
Source text: The study excluded patients receiving disopyramide. […] Overall, the treatment duration was 10 weeks with a 4-week follow-up period after the last dose.
Patients were eligible to be included in the study only if all the following criteria apply: 1. Able to comprehend and willing to sign an informed consent form (ICF) and willing to comply with all study procedures and restrictions for the duration; 2. Males and females between 18 and 85 years of age at screening; 3. Body weight is ≥45 kg at screening; 4. Diagnosed with HCM per the following criteria: (a) has LV hypertrophy and non-dilated LV chamber in the absence of other cardiac disease; and (b) has minimal wall thickness ≥15 mm (minimal wall thickness ≥13 mm is acceptable with a positive family history of HCM or with a known disease-causing gene mutation); 5. Adequate acoustic windows for echocardiography; 7. Left ventricular ejection fraction (LVEF) ≥60% at screening; 8. New York Heart Association (NYHA) Class II or III at screening; 9. Patients on beta-blockers, verapamil, diltiazem, or ranolazine should have been on stable doses for ≥4 weeks and anticipate remaining on the same medication regimen during the study; 10. […] Able to complete all screening procedures.
Patients were excluded from the study if any of the following criteria applied: 1. Aortic stenosis or fixed subaortic obstruction; 2. Known infiltrative or storage disorder causing cardiac hypertrophy that mimics HCM (e.g., Noonan syndrome, Fabry disease, amyloidosis); 3. […] Documented history of current obstructive coronary artery disease (>70% stenosis in one or more epicardial coronary arteries) or documented history of myocardial infarction; 6. […] Has any ECG abnormality considered by the investigator to pose a risk to patient safety (e.g., second degree atrioventricular block type II); 9. Paroxysmal atrial fibrillation or flutter documented during the screening period; 10. […] Currently participating in another investigational device or drug study or received an investigational device or drug <1 month (or 5 half-lives for drugs, whichever is longer) prior to screening; 20.
Each patient received Dose 1 once daily for 2 weeks. […] Otherwise, the patient remained on Dose 1. If LVEF was <50% at Week 2, treatment was discontinued.
Otherwise, the patient remained on the same dose. If LVEF was <50% at Week 4, the patient returned to a prior dose level or treatment was discontinued if the patient was on Dose 1.
If LVEF was <50% at Week 6, the patient was down-titrated to a prior dose level or discontinued if the patient was on Dose 1.
Primary safety endpoints were: (i) patient incidence of reported AEs from first dose up to safety follow-up; (ii) patient incidence of reported SAEs from first dose up to safety follow-up; (iii) patient incidence of LVEF <50% from first dose up to safety follow-up.
Safety follow-up was defined as 4 weeks following the last dose.

[4] = test system: patients with symptomatic non-obstructive HCM (nHCM) or HCM with MVO; test: Phase 2 trial (Example 2): exploratory responder analysis in subgroups; type: in vivo, human
Experimental: An exploratory responder analysis was performed to consider treatment effect in certain subgroups of patients.

[5] = CYP2D6 poor metabolizers, geometric mean, n = 7
[6] = CYP2D6 poor metabolizers, mean ± SD, n = 7
[7] = food-effect cohort, Fasted, n = 4
[8] = food-effect cohort, Fasted, n = 10
[9] = food-effect cohort, Fed, n = 12
[10] = number of patients, N = 41, interim

## CCc1nc(-c2ccc3c(c2)CC[C@H]3NC(=O)c2cnn(C)c2)no1 [aficamten, (R)—N-(5-(5-ethyl-1,2,4-oxadiazol-3-yl)-2,3-dihydro-1H-inden-1-yl)-1-methyl-1H-pyrazole-4-carboxamide]
[1]; [5]
  AUC24: 495 ng·h/mL
  AUCinf: 2966 ng·h/mL
  Cmax: 57.3 ng/mL
[1]; [6]
  CL/F: 3.6 ± 1.4 L/h
  t1/2: 110 h
[1]; versus extensive metabolizers
  impact of CYP2D6-PM phenotype on pharmacokinetics: Neither food nor CYP2D6-PM phenotype had a clinically meaningful impact; also recorded: did not appear to have reduced clearance
[2]; fed (high-fat breakfast) versus fasted
  effect of food on pharmacokinetics: Neither food nor CYP2D6-PM phenotype had a clinically meaningful impact; also recorded: little effect on AUC; also recorded: no significant effect of food
[2]; fed versus fasted
  increase in Cmax when taken with food: approximately 30%
[2]; [7]
  AUCinf: 3674 ng·h/mL
  CL/F: 2.8 ± 0.6 L/h
  t1/2: 84.4 ± 16.4 h
[2]; [8]
  AUC24: 601 (33) ng · h/ml
  Cmax: 50.6 ng/mL
[2]; food-effect cohort, Fasted, median, n = 10
  Tmax: 2.3 h
[2]; food-effect cohort, Fed, n = 7
  AUCinf: 3413 ng·h/mL
  CL/F: 3.1 ± 0.9 L/h
  t1/2: 78.0 ± 8.1 h
[2]; [9]
  AUC24: 631 (25) ng · h/ml
  Cmax: 65.0 ng/mL
[3]; 4 of 41 patients including one death, second interim
  patients who experienced SAEs: 9.8%
[3]; 10 weeks, nHCM patients
  overall tolerability: well-tolerated overall
[3]; Week 10 (EOT), 3 of 41 patients
  patients with LVEF <50%: 7.3%
[3]; by Week 12 (2 weeks' washout)
  recovery of LVEF in patients with LVEF <50%: All 3 patients returned to baseline LVEF; also recorded: All LVEF returned to normal
[3]; interim
  AEs of heart failure: No AEs of heart failure
  drug discontinuations due to AE: no drug discontinuations
  relatedness of SAEs (bronchitis, new onset atrial fibrillation, cardiac arrest) per Investigator: None of these were deemed related to aficamten
[3]; [10]
  Patients reporting at least one TEAE: 27
  Patients with AEs related to study drug (per Investigator): 4
  Patients with Moderate TEAEs: 14
  Patients with Severe TEAEs: 3
  Patients with fatal TEAEs: 1
[3]; percent of N = 41, interim
  Patients with AEs related to study drug (per Investigator): (9.8) %
  Patients with Moderate TEAEs: (34) %
  Patients with Severe TEAEs: (7.3) %
  Patients with TESAEs: (7.3) %
  Patients with fatal TEAEs: (2.4) not related %
[3]; second interim
  attribution of SAEs: None of the SAEs were attributed to aficamten
  events with LVEF <40%: no events with LVEF <40%; also recorded: No LVEF <40% occurred
  treatment interruptions or down-titration events related to LVEF <50%: no treatment interruptions or down-titration events
[3]; week 9, interim
  patients with dose reduction to 10 mg for AE fatigue: One patient
[3]; weeks 0-6, interim
  LVEF <50% during the titration period: no LVEF were less than 50%
[4]; beta-blockers or not, elevated TnI or E/e′ or not, genetic or family history of HCM or not
  responder analysis: treatment effect in other subgroups: Consistent treatment effects
[4]; patients with BMI ≥30 compared to BMI <30
  responder analysis: treatment effect by BMI: potential differential treatment effect
